Data reported in patent publication US20240254119A1 (THIRD HARMONIC BIO, INC., priority 2022, published 2024).

What was measured:
wtKIT = molecular target: T1, wtKIT (Homo sapiens, UniProt P10721); assay: Caliper biochemical assay, wtKIT; conditions: Table 6, read-out: KIT Biochemical IC50 avg
T1 construct: 1888289AM in the reaction mixtures
Procedure, shortened: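 Enzyme (5.0 nM wtKIT), 1 μM FAM-labelled peptide, 400 μM ATP and 10 mM MnCl2 in HEPES pH 7.5 with 1% DMSO, incubated 3 h at 25° C. EDTA quench; substrate and phosphoproduct separated by microfluidic electrophoresis and quantified by fluorescence.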

CSF-1R = molecular target: T2, CSF-1R (Homo sapiens, UniProt P07333); assay: Caliper biochemical assay, CSF-1R; conditions: Table 6
T2 construct: purchased Invitrogen PV3249 (lot 662393N)
T2 sequence (P07333 20-972): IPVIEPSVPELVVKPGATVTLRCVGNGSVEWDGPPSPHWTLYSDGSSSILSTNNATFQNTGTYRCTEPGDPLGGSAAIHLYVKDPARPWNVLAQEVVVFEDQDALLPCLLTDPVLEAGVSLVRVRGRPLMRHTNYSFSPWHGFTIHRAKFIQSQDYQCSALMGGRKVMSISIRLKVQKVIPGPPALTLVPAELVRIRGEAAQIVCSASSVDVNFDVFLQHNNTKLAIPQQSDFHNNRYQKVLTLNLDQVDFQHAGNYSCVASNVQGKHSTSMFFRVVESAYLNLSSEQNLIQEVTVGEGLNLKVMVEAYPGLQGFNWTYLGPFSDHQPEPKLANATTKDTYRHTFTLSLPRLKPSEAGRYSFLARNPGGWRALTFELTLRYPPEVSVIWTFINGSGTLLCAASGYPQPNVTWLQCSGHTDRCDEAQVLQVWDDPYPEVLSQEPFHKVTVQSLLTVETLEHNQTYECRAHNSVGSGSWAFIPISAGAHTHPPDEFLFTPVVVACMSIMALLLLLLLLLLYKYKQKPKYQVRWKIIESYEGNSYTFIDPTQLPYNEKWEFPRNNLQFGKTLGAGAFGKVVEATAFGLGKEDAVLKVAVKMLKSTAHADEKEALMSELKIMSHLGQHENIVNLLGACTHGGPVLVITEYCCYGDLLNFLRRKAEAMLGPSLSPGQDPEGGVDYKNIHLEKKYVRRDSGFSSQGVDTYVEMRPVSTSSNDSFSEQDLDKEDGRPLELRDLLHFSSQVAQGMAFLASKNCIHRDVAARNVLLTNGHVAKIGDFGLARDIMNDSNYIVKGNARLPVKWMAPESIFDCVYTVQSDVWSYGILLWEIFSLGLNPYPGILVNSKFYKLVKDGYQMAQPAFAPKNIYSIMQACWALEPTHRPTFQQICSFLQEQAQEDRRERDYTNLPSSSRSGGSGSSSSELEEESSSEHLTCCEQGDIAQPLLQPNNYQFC
Protocol: (§1) Enzyme, substrate, and cofactors (ATP and Mn^2+) are combined in a well of a microtiter plate and incubated for 3 hours at 25° C. At the end of the incubation, the reaction is quenched by the addition of an EDTA-containing buffer. Substrate and product are separated electrophoretically using the microfluidic-based LabChip 3000 Drug Discovery System from Caliper Life Sciences* and quantitated by fluorescence intensity.
(§2) The substrate used in the CSF-1R and PDGFRα assay is FAM-[…]-CONH2 (FAM is carboxyfluorescein). Peptide should be >95% purity. The substrate for the KIT assay is FAM-[…]-NH2.
(§3) • 1. To a well of a 384-well plate add 5 μL of 2× enzyme buffer (or control) • 2. Add 100 nL of 100× compound. • 3. Add 5 μL of 2× substrate buffer. • 4. Incubate plate at 25° C. for 3 hours. • 5. Add 10 uL of […]. • 6. Read plate LabChip 3000 Drug Discovery System
(§4) • 3 hours at 25° C. where 100% Inhibitor: No enzyme.

PDGFRα = molecular target: T3, PDGFRα (Homo sapiens, UniProt P16234); assay: Caliper biochemical assay, PDGFRα; conditions: Table 6
T3 construct: purchased Millipore 14-467 (lot 26321_ACTI)
T3 sequence (P16234 24-1089): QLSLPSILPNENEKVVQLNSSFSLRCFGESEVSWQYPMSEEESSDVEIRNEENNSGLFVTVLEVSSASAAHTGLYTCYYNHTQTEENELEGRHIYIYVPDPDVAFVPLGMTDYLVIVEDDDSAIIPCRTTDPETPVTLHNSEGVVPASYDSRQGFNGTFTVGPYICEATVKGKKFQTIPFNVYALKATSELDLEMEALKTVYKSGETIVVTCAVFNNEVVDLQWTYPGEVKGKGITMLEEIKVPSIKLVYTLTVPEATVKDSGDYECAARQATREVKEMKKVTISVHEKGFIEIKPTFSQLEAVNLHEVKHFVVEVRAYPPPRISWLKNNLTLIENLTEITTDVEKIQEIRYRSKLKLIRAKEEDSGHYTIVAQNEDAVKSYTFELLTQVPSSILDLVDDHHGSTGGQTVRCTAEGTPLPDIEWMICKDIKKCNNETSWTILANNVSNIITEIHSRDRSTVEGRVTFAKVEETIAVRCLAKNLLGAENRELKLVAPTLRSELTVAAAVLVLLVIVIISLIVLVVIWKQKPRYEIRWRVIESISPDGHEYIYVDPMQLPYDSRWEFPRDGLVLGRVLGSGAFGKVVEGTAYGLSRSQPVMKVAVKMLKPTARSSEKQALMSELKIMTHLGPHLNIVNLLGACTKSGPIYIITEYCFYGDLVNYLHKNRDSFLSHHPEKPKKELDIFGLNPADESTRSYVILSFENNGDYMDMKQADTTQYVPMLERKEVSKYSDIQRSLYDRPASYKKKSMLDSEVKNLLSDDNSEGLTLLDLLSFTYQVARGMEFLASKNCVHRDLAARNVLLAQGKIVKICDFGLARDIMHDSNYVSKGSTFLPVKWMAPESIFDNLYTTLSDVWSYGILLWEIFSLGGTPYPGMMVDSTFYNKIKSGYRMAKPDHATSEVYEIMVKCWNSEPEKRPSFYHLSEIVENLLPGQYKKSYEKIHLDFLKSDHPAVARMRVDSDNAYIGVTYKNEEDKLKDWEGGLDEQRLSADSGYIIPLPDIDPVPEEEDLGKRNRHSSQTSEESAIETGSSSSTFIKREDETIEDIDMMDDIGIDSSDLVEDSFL
Protocol: as §1, §2, §3, §4

Kinetic solubility assay = format: physicochemical; conditions: kinetic solubility, 50 mM PB (pH 7.4), shaken 24 hours at RT
Procedure, shortened: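 Test compounds from 10 mM DMSO stock were diluted in 50 mM phosphate buffer, pH 7.4, and shaken for 24 h at RT. After PTFE filtration and centrifugation, filtrate concentration was quantified by UPLC-UV/HPLC-UV against a standard curve.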

T1 sequence (P10721 26-976): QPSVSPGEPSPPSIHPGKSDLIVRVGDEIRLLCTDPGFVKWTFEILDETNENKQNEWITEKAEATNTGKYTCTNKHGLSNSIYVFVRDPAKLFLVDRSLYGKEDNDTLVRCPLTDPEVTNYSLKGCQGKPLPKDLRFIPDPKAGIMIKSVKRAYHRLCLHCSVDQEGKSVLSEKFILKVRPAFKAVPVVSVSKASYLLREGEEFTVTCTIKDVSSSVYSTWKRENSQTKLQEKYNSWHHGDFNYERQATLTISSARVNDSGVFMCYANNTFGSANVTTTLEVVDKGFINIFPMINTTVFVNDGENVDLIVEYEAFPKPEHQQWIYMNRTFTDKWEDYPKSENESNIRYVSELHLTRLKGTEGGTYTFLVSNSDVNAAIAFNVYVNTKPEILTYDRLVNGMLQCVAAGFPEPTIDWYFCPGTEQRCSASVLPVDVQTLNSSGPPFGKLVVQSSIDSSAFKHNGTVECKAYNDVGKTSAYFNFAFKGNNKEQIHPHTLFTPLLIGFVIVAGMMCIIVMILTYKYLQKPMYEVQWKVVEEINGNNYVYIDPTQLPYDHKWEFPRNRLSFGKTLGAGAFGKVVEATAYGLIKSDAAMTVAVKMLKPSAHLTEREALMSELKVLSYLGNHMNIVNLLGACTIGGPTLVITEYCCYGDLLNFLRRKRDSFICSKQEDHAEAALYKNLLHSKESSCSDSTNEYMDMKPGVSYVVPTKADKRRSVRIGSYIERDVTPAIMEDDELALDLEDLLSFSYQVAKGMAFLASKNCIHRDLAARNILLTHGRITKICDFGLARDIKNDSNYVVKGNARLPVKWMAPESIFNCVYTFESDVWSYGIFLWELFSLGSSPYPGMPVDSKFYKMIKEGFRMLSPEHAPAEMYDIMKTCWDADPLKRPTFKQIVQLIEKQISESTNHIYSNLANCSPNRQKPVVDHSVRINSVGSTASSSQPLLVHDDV

| IC50 (wtKIT) [µM] | IC50 (CSF-1R) [µM] | IC50 (PDGFRα) [µM] | SMILES | Solubility (μM) (Kinetic solubility assay) |
| --- | --- | --- | --- | --- |
| ≤ 0.05 | 0.05 to 0.5 | 0.05 to 0.5 | Cc1ccc(-c2noc([C@@H]3CCN3C3CC3)n2)cc1NC(=O)c1cnc2ccccn12 (racemic) [Compound I-177] | **** (a solubility less than or equal to 2 μM) |
| ≤ 0.05 | ≤ 0.05 | 0.05 to 0.5 | Cc1ccc(-c2noc([C@@H]3CCN3CC(F)(F)F)n2)cc1NC(=O)c1cnc2ccccn12 (racemic) [Compound I-178] | **** (a solubility less than or equal to 2 μM) |
| 0.05 to 0.5 | 0.5 to 5 | 5 to 30 | COCCN1CC[C@H]1c1nc(-c2ccc(C)c(NC(=O)c3cnc4ccccn34)c2)no1 (racemic) [Compound I-179] | * (a solubility greater than 50 μM) |
| ≤ 0.05 | 0.05 to 0.5 | 0.5 to 5 | CCN1CC[C@H]1c1nc(-c2ccc(C)c(NC(=O)c3cnc4ccccn34)c2)no1 (racemic) [Compound I-180] | * (a solubility greater than 50 μM) |
| ≤ 0.05 | ≤ 0.05 | 0.5 to 5 | Cc1ccc(-c2noc([C@H](C)NS(=O)(=O)c3cnn(C)c3)n2)cc1NC(=O)c1cnc2ccccn12 (racemic) [Compound I-181] | * (a solubility greater than 50 μM) |
| 0.05 to 0.5 | 0.05 to 0.5 | 5 to 30 | Cc1ccc(-c2noc(CC(O)C(F)(F)F)n2)cc1NC(=O)c1cnc2ccccn12 (racemic) [Compound I-183] | **** (a solubility less than or equal to 2 μM) |
| ≤ 0.05 | 0.05 to 0.5 | 0.5 to 5 | Cc1ccc(-c2noc([C@@H]3CCC(F)(F)CN3)n2)cc1NC(=O)c1cnc2ccccn12 (racemic) [Compound I-198] | *** (a solubility greater than 2 μM and less than or equal to 10 μM) |
| ≤ 0.05 | 0.05 to 0.5 | 0.5 to 5 | Cc1ccc(-c2noc(C3CCN3S(C)(=O)=O)n2)cc1NC(=O)c1cnc2ccccn12 (racemic) [Compound I-356] | ** (a solubility greater than 10 μM and less than or equal to 50 μM) |
| ≤ 0.05 | 0.05 to 0.5 | 5 to 30 | COC(=O)N1CC(c2nc(-c3ccc(C)c(NC(=O)c4cnc5cc(COCC(F)(F)F)ccn45)c3)no2)C1 [Compound I-128] | **** (a solubility less than or equal to 2 μM) |
| ≤ 0.05 | 0.5 to 5 | 5 to 30 | Cc1nc(-c2ccc(C)c(NC(=O)c3cnc4cc(COCC(F)(F)F)ccn34)c2)no1 [Compound I-133] | **** (a solubility less than or equal to 2 μM) |
| ≤ 0.05 | 0.05 to 0.5 | 5 to 30 | COC(=O)N1CC(c2nc(-c3ccc(C)c(NC(=O)c4cnc5cc(C(F)F)ccn45)c3)no2)C1 [Compound I-135] | **** (a solubility less than or equal to 2 μM) |
| ≤ 0.05 | 0.05 to 0.5 | 5 to 30 | Cc1ccc(-c2noc([C@H](C)NS(C)(=O)=O)n2)cc1NC(=O)c1cnc2ccccn12 [Compound I-147] | ** (a solubility greater than 10 μM and less than or equal to 50 μM) |
| ≤ 0.05 | ≤ 0.05 | 0.05 to 0.5 | Cc1nc(-c2ccc(C)c(NC(=O)c3cnc4ccc(NCCO)cn34)c2)no1 [Compound I-176] | ** (a solubility greater than 10 μM and less than or equal to 50 μM) |
| 0.05 to 0.5 | 0.05 to 0.5 | 0.5 to 5 | Cc1ccc(-c2noc([C@@H]3CCN3S(=O)(=O)c3ccccc3)n2)cc1NC(=O)c1cnc2ccccn12 [Compound I-186] | *** (a solubility greater than 2 μM and less than or equal to 10 μM) |
| 0.05 to 0.5 | 0.05 to 0.5 | 0.05 to 0.5 | Cc1ccc(-c2noc([C@@H]3CCN3S(=O)(=O)C3CCOCC3)n2)cc1NC(=O)c1cnc2ccccn12 [Compound I-187] | ** (a solubility greater than 10 μM and less than or equal to 50 μM) |
| ≤ 0.05 | 0.05 to 0.5 | 0.05 to 0.5 | COC(=O)CS(=O)(=O)N1CC[C@H]1c1nc(-c2ccc(C)c(NC(=O)c3cnc4ccccn34)c2)no1 [Compound I-188] | *** (a solubility greater than 2 μM and less than or equal to 10 μM) |
| ≤ 0.05 | 0.05 to 0.5 | 0.5 to 5 | O=C(Nc1cc(-c2noc([C@H]3CC(F)(F)CN3)n2)ccc1Cl)c1cnc2ccccn12 [Compound I-192] | **** (a solubility less than or equal to 2 μM) |
| ≤ 0.05 | ≤ 0.05 | 0.05 to 0.5 | Cc1ccc(-c2noc([C@H]3CCN3C3CCC3)n2)cc1NC(=O)c1cnc2ccccn12 [Compound I-193] | **** (a solubility less than or equal to 2 μM) |
| ≤ 0.05 | ≤ 0.05 | 0.05 to 0.5 | Cc1ccc(-c2noc([C@H]3CCN3C(C)C)n2)cc1NC(=O)c1cnc2ccccn12 [Compound I-194] | *** (a solubility greater than 2 μM and less than or equal to 10 μM) |
| ≤ 0.05 | ≤ 0.05 | 0.05 to 0.5 | Cc1ccc(-c2noc([C@H]3CCN3S(=O)(=O)C3CCOCC3)n2)cc1NC(=O)c1cnc2ccccn12 [Compound I-196] | ** (a solubility greater than 10 μM and less than or equal to 50 μM) |
| ≤ 0.05 | 0.05 to 0.5 | 0.5 to 5 | COC(=O)CS(=O)(=O)N1CCC1c1nc(-c2ccc(C)c(NC(=O)c3cnc4ccccn34)c2)no1 (stereo not drawn) [Compound I-197] | *** (a solubility greater than 2 μM and less than or equal to 10 μM) |
| ≤ 0.05 | ≤ 0.05 | 0.05 to 0.5 | Cc1ccc(-c2noc([C@H]3C[C@@H]3F)n2)cc1NC(=O)c1cnc2ccc(N3CCC3)cn12 [Compound I-291] | *** (a solubility greater than 2 μM and less than or equal to 10 μM) |
| ≤ 0.05 | ≤ 0.05 | ≤ 0.05 | Cc1ccc(-c2noc([C@H]3C[C@@H]3F)n2)cc1NC(=O)c1cnc2cc(Nc3ccc4c(c3)OCCO4)ccn12 [Compound I-301] | **** (a solubility less than or equal to 2 μM) |
| ≤ 0.05 | ≤ 0.05 | ≤ 0.05 | Cc1ccc(Nc2ccn3c(C(=O)Nc4cc(-c5noc([C@H]6C[C@@H]6F)n5)ccc4C)cnc3c2)cc1 [Compound I-302] | **** (a solubility less than or equal to 2 μM) |
| ≤ 0.05 | ≤ 0.05 | 0.05 to 0.5 | Cc1ccc(-c2noc([C@H]3C[C@@H]3F)n2)cc1NC(=O)c1cnc2cc(N3CCCCC3)ccn12 [Compound I-305] | **** (a solubility less than or equal to 2 μM) |
| 0.05 to 0.5 | ≤ 0.05 | ≤ 0.05 | Cc1ccc(-c2noc(C34CCC(CC3)CC4)n2)cc1NC(=O)c1cnc2ccccn12 [Compound I-311] | **** (a solubility less than or equal to 2 μM) |
| ≤ 0.05 | ≤ 0.05 | 0.05 to 0.5 | Cc1ccc(-c2noc(C3CCN3S(C)(=O)=O)n2)cc1NC(=O)c1cnc2ccccn12 (stereo not drawn) [Compound I-331] | ** (a solubility greater than 10 μM and less than or equal to 50 μM) |
